From patent EP3811945A1, “COMPOUNDS FOR TREATING AND PREVENTING GROWTH HORMONE RECEPTOR-DEPENDENT CONDITIONS” (UMC Utrecht Holding B.V., priority 2019, dated 2021)

How the values were obtained:
[1] = system: dog breast cancer cells, grown as organoids; test: Growth of canine mammary tumor organoids; assay type: cell-based; conditions: Canis lupus familiaris; organoids in Matrigel; read-out: EC50 growth inhibition of dog breast cancer organoids
Method: Next, we determined that also growth of dog breast cancer cells, grown as organoids, could be inhibited with the compounds according to the invention, in the best case (compound #1) with an EC50 of about 20 nM, see also figure 3.
Canine mammary organoids were derived from tumor cells and cultured in Matrigel in the presence of a variety of growth factors, Wnt activators and MPA (Timmermans-Sprang et al., 2017). Organoids were treated for 48 h with 100 nM of compound #1, followed by staining with DAPI (nuclei) or specific antibodies against GHR or cytokeratin 8 (CK8).

GHR = GHR protein levels and phosphorylation in GHR-expressing HEK293T cells transfected with Jak2 (blot, Figure 4A); assay type: cell-based, rabbit; conditions: overnight treatment, compounds 10 µM; 90 ng GH/ml 10 min before lysis
Source text: • Figure 1. […] Unphosphorylated fos-GHRct is rapidly degraded.

GH-GHR-Jak2 signaling = test: GH-induced signaling in Hek293T cells expressing GHR (pY staining, concentration series)
Method: (§1) GH-induced GH-GHR-Jak2 signaling was probed by GHR pY staining in concentration series (0-20 µM, 1 h drug-treated, 10 min GH).

GM-CSF signaling = test: GH/GM-CSF flow cytometric test in whole human blood with IM-9 lymphoblasts; conditions: selectivity versus another Jak2-dependent cytokine
Method: This allowed simultaneous testing of GH- and GM-CSF activity. The GH/GM-CSF cytometric test added two important criteria to GH signaling: The test prioritized compounds that target the GH-driven signaling at the expense of another Jak2-dependent cytokine signaling (GM-CSF); equally important: it selected compounds that exert a rapid effect on the GH/IGF-axis as the response time for STAT5 phosphorylation was limited to 20-30 min.
as §1

[2] = system: fos-zippered GHR cytosolic tails; test: In vitro translation in HeLa cell-free system (Figure 4B); assay type: biochemical; conditions: HeLa cell extract, increasing concentrations
Source text: • Figure 1. Diagram of the primary screening method for candidate compounds. Depicted are GHR fos-zipped cytosolic tails, amino acid 288-638 with fos zippers (fos), box-1 sequence (B1), and Jak2 (FERM, SH2, pseudokinase and kinase domains), as described in Nespital et al., 2016; Sedek et al, 2014). If the dimerized tails and Jak2 bind via FERM and Box-1, Jak2 gets activated and phosphorylates itself, the dimerized tails and STAT5b. After phosphorylation of specific tyrosine residues on GHR, Jak2 and STAT5, the complex dissociates; as fos-pGHRct is protease-resistant it accumulates in the cells. Unphosphorylated fos-GHRct is rapidly degraded. Steady state levels of Fos-pGHRct are lower if its synthesis, degradation or Jak2-interaction is changed by a candidate compound. The cell-based assay was performed in y2A cells carrying inducible Jak2 (iJak2) or binding-deficient iJak2 Y119E (as control). • Figure 2. Effect of test compounds on mice, xenografted with MDA-MB-231 cells. Athymic nude BALB/c mice were transplanted with luciferase-expressing MDA-MB-231 cells at week -5. Starting at week 0, compound #1 was injected 3 times a week for 3 weeks; group size: 9, intraperitoneally (IP) at 1 or 5 mg/kg as indicated. […] The blots were detected with an anti-GHR antibody raised in rabbits against the cytosolic tails. • Figure 5: Schematic view of GHR signaling. […]

MDA-MB-231 cells = test: In vivo test in mice xenografted with MDA-MB-231 cells; set-up: species or system Athymic nude BALB/c mice
Source text: • Figure 1. Diagram of the primary screening method for candidate compounds. Depicted are GHR fos-zipped cytosolic tails, amino acid 288-638 with fos zippers (fos), box-1 sequence (B1), and Jak2 (FERM, SH2, pseudokinase and kinase domains), as described in Nespital et al., 2016; Sedek et al, 2014). If the dimerized tails and Jak2 bind via FERM and Box-1, Jak2 gets activated and phosphorylates itself, the dimerized tails and STAT5b. After phosphorylation of specific tyrosine residues on GHR, Jak2 and STAT5, the complex dissociates; as fos-pGHRct is protease-resistant it accumulates in the cells. Unphosphorylated fos-GHRct is rapidly degraded. Steady state levels of Fos-pGHRct are lower if its synthesis, degradation or Jak2-interaction is changed by a candidate compound. The cell-based assay was performed in y2A cells carrying inducible Jak2 (iJak2) or binding-deficient iJak2 Y119E (as control). • Figure 2. Effect of test compounds on mice, xenografted with MDA-MB-231 cells. Athymic nude BALB/c mice were transplanted with luciferase-expressing MDA-MB-231 cells at week -5. Starting at week 0, compound #1 was injected 3 times a week for 3 weeks; group size: 9, intraperitoneally (IP) at 1 or 5 mg/kg as indicated. Anesthetized mice were IP-injected with luciferin and the bioluminescence was imaged. The animals received the last drug injections 2 hours before they were euthanized, then blood was collected and livers were weighed. […] Organoids were cultured in Matrigel in the presence of a variety of growth factors, Wnt activators and MPA. Organoids were treated for 48 h with 100 nM of compound #1 followed by staining with DAPI (nuclei) or specific antibodies against GHR or cytokeratin 8. • Figure 4A: Effect of compounds on GHR levels in Hek293T cells. […] The amounts of GHR both at the plasma membrane (PM) and in the endoplasmic reticulum (ER) were decreased in the cells treated with the compounds. […] Decrease of the pY signal in lanes 3 and 4 in the middle panel reflects the decrease of GHR protein levels (in the upper panel). […] Translation of other proteins was not affected by the drugs (not shown). We used a cell-free translation system based on HeLa cell extract (Promega) Empty vector (pcDNA) was used as control. The blots were detected with an anti-GHR antibody raised in rabbits against the cytosolic tails. • Figure 5: Schematic view of GHR signaling. Top panel, downstream signaling pathways with their main expressed genes and enzymatic activities; middle panel, resulting effect; lower panel, major diseased states if unbalanced.
Mice were xenografted with MDA-MB-231 cells as described. This cell line was chosen as it is GH-responsive, […] can block doxorubicin-induced apoptosis, it lacks E-cadherin due to hypermethylation, proliferates fast, has a basal-like expression profile and originates from infiltrating ductal breast cancer (Christgen and Derksen, 2015; Hollestelle et al., 2013; Minoia et al., 2012).
We used a protocol of 3 injections per week (1 and 5 mg/kg) during 3 weeks (9 mice/group). The treatment started after 5 weeks at a tumor volume of about 60 mm^3, and the animals were killed after 3 weeks at a tumor volume of 130 mm^3 in the control group.

[3] = system: triple negative human breast cancer cells (MDA-MB-231); test: Proliferation test (DNA in vital cells, dose-response); assay type: cell-based; conditions: Homo sapiens; inhibition of proliferation of MDA-MB-231, tested after 24, 48, 72h in cell culture
Method: The EC50 refers to the inhibitory effect of the compounds on the proliferation of triple negative human breast cancer cells (MDA-MB-231), tested after 24, 48, 72h in cell culture.
We used the triple-negative human breast cancer line, MDA-MB-231 and quantified DNA in vital cells. Dose-response curves were made after 24, 48 & 72 h. […] The compound with the lowest EC50 (Compound #1) was tested in vivo.

[4] = IP 1 or 5 mg/kg, 3 times a week for 3 weeks

Compound: Cc1nc(N)nc(N)c1C=CC1(c2ccc(C(F)(F)F)cc2)CC1 [Compound #1, 6-methyl-5-[2-{1-[4-(trifluoromethyl)phenyl]cyclopropyl}ethenyl]pyrimidine-2,4-diamine]
- EC50 [1]: ~20 nM
- amounts of GHR at the plasma membrane (PM) and in the endoplasmic reticulum (ER) / GHR protein levels (GHR): decreased
- phosphorylation of fos-GHRct (fos-pGHRct), of the active site of Jak2 (p1007/1008) and of STAT5 (pSTAT5) (GH-GHR-Jak2 signaling): inhibited
- EC50 (GH-GHR-Jak2 signaling; Oryctolagus cuniculus, HEK-293T): ~300 nM
- activity towards GM-CSF signaling (GM-CSF signaling): inactive
- effective concentrations on in vitro translation of fos-zippered GHR cytosolic tails [2]: > 0.1 µM
- significantly lowered liver weight (MDA-MB-231 cells; [4]): 85%
- total body weights (MDA-MB-231 cells; [4]): remained the same
- significantly lowered serum IGF-1 (MDA-MB-231 cells; IP 1 or 5 mg/kg, 3 times a week for 3 weeks, blood 2 hours after last injection): 27%
- level of plasma IGF-1 (figure 2C) (MDA-MB-231 cells; treated vs control mice): decreased
- liver weight (figure 2D) (MDA-MB-231 cells; treated vs control mice): reduced
- EC50 [3]: 30 nM
